Literature values, collected in patent US20030125243A1, “Synthesis of cyclic peptides” (priority 2000, published 2003).

Target: αvβ3 (Homo sapiens, UniProt P05106+P06756)
Details: background statement, Haubner et al. 1996

Sequence of αvβ3 (P06756 31-889 limits assumed): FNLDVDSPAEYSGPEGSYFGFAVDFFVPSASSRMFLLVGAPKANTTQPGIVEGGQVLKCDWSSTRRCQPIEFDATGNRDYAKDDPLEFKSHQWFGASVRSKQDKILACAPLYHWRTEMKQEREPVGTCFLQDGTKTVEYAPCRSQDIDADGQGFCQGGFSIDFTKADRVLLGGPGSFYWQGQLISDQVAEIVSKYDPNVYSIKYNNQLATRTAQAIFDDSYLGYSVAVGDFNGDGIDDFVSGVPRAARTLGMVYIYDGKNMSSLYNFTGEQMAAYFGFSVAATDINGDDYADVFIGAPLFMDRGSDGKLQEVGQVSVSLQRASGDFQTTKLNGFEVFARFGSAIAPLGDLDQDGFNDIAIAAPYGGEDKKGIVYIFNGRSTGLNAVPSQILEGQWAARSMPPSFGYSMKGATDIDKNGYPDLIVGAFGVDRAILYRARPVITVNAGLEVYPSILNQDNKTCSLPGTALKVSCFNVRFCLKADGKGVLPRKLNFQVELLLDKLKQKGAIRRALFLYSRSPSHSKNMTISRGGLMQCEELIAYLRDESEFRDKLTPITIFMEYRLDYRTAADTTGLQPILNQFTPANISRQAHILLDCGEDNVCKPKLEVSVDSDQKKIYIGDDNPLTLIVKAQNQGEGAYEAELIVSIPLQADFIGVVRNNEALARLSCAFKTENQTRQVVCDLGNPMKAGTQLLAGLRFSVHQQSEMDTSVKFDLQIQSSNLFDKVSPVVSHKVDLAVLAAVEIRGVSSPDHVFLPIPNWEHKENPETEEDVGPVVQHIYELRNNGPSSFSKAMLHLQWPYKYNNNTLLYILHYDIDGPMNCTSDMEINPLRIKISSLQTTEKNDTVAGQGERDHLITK
Sequence of αvβ3 (P06756 891-1048 partner limits assumed): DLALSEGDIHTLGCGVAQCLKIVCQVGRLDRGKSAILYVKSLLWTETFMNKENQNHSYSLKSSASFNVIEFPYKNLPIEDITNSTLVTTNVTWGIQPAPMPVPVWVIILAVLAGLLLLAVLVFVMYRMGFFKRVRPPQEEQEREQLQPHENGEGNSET
Sequence of αvβ3 (P05106 27-788): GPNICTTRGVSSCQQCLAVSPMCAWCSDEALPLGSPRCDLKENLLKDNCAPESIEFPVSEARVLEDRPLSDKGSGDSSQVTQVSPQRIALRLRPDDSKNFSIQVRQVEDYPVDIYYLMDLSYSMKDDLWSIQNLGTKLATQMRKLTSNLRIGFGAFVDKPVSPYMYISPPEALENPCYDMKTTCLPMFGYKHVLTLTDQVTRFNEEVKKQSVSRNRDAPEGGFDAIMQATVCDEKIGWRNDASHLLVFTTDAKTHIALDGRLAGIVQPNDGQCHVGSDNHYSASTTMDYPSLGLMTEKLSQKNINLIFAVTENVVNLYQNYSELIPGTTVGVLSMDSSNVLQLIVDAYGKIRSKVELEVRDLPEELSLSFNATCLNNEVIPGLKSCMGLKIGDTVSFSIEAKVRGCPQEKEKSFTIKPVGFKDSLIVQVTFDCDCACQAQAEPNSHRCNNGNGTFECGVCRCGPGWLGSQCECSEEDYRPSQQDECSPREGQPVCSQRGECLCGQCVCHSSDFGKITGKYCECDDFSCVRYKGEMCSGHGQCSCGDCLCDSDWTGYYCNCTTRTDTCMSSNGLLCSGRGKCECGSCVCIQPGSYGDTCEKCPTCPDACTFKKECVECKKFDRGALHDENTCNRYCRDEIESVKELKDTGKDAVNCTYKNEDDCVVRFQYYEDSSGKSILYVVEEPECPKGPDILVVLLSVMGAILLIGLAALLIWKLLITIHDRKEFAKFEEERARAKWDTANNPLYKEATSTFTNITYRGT

binding to αvβ3 (potency and selectivity): high potency and selectivity
Substance: cRGDfK
